Data on 9 compounds can be found in patent US5185338A, “Medicament for treating cerebral insufficiency diseases, novel 2-(1-piperazinyl)-4-phenylcycloalkanopyrimidine derivatives, and process for the production thereof” (Dainippon Pharmaceutical Co., Ltd., priority 1989, dated 1993).

As usually defined, the IC50 is the point on the concentration scale where inhibition reaches its midpoint. High values mean weaker potency, low ones greater potency.

The conditions of data set [1]: U.S. Pat. No. 3,915,976; U.S. Pat. No. 3,305,553; cited from earlier work.
The conditions of data set [2]: Chem. Pharm. Bull., 31, 2254-2261 (1983); cited from earlier work.
In data set [3] the test system is scopolamine-induced deficit of spontaneous alternation behavior. As to the kind of experiment: Improving effect on scopolamine-induced deficit of spontaneous alternation behavior (T-maze). In kind it is in vivo, mice (Std-ddY strain). Conditions: scopolamine hydrobromide 1 mg/kg, non-dosed mice=100%. From the text: Improving effect on scopolamine-induced deficit of spontaneous alternation behavior:
A group of 15-25 male mice (Std-ddY strain, 22-28 g) was used for evaluating effect of the test compounds on scopolamine-induced deficit of spontaneous alternation in a T-maze, which is a known animal model of memory impairment due to hypofunction of the cholinergic nervous system. The T-maze used consists of a stem and two arms which are 25 cm long, 5 cm wide and 10 cm high. The first 10 cm of the stem and last 10 cm of each arm are divided by sliding doors into start and goal boxes.
A test compound and scopolamine hydrobromide (1 mg/kg) were intraperitoneally administered to each mouse, and after 30 minutes a test of spontaneous alternation task in the T-maze was continuously repeated for 8 trials. Commonly, naive mice alternate each (right and left) goal box in turn, but scopolamine-treated animals tend to enter the same goal box repeatedly. The effect of the test compounds was expressed as % improvement (complete improvement to the alternation level of non-dosed mice=100%).

A further data set deals with T1, dopamine (D2) receptor (Rattus norvegicus, UniProt P61169).
T1 construct: Crude synaptosome fractions prepared from some brain regions in rats were used as the receptor sources; from tissue
As to the kind of experiment: Dopamine (D2) receptor binding assay, [3H] spiperone. Also on record: species or system rats. To be noted: rat brain crude synaptosome fractions. The method, then: (§1) Effect of binding to dopamine (D2), serotonin (S1, S2) and adrenaline (α1) receptor (in vitro receptor binding assay):
(§2) Dopamine (D2), serotonin (S1, S2) and adrenaline (α1) receptor binding assays were carried out according to the methods of I. Creese et al. [Eur. J. Pharmacol., 46, 377 (1977)], S. J. Peroutka et al. [Mol. Pharmacol., 16, 687 (1979)], J. E. Leysen et al. [Mol. Pharmacol., 21, 301 (1982)], and D. C. U'Prichard et al. [Mol. Pharmacol., 13, 454 (1977)], respectively.
(§3) Crude synaptosome fractions prepared from some brain regions in rats were used as the receptor sources, and [^3 H] spiperone (D2), [^3 H] serotonin (S1), [^3 H] ketanserin (S2) and [^3 H] WB-4101 (α1) were used as the labelled ligands. The binding assay was performed by incubating aliquots of synaptosome fraction in buffer solution (final volume 1 ml) containing the receptor source and the labelled ligand in the presence of a test compound having various concentration thereof for a fixed time. The assay was terminated by rapid filtration through Whatman GF/B glass fiber filters attached to a cell-harvester (Brandel) and radioactivity on the filters was counted with a scintillation counter. Specific binding was calculated as a difference between the amount of radioactivity in the assay group and that in the control group which was separately measured likewise in the presence of an excess amount of an unlabelled ligand [spiperone (D2), serotonin (S1), methysergide (S2) and prazosin (α1)] instead of […]. The IC50 value of the test compounds (i.e. the concentration causing 50% inhibition of the labelled ligand specific binding) was determined by probit analysis.

The target in the next data set is T2, serotonin (S2) receptor (Rattus norvegicus, UniProt P14842).
T2 construct: Crude synaptosome fractions prepared from some brain regions in rats were used as the receptor sources; from tissue
The data set can be described thus: Serotonin (S2) receptor binding assay, [3H] ketanserin. Also on record: species or system rats. To be noted: rat brain crude synaptosome fractions. The procedure:
as §1, §2, §3

The subject of data set [4] is cycloheximide-induced amnesia of passive avoidance response. The data set can be described thus: Improving effect on cycloheximide-induced amnesia of passive avoidance response. In kind it is in vivo, mice (Std-ddY strain). Conditions: cycloheximide 60 mg/kg s.c., retention trial at 24 hours, non-dosed animals=100%. From the text:
Improving effect on cycloheximide-induced amnesia of passive avoidance response:
Anti-amnesic effect of the test compounds was examined using mice given cycloheximide which is a known amnesia-inducing agent.
A group of 15-20 male mice (Std-ddY strain, 27-33 g) was subjected to training and retention trials for a passive avoidance task in a step-down apparatus (30×30×50 cm) with a grid floor and a wooden platform (4×4×4 cm) in a center of the floor. In the training trial, each mouse was first placed on the platform, and when the mouse stepped down on the grid floor, an electric shock (1 Hz, 0.5 sec, 60 VDC) was delivered to the feet for 15 seconds. Immediately after the training trial, cycloheximide (60 mg/kg, s.c.) and a test compound (i.p.) were administered. The retention trial was carried out 24 hours thereafter, and the time from placing again each mouse on the platform until stepping down on the grid floor (step-down latency) was measured. The step-down latency in the retention trial was markedly shortened by treatment of cycloheximide (amnesia). The effect of test compounds was assessed by % improvement (complete improvement to the latency level of non-dosed animals=100%).

The subject of data set [5] is scopolamine-induced hypermotility. The data set can be described thus: Antagonistic effect on scopolamine-induced hypermotility. It is filed as in vivo, mice (Std-ddY strain). To be noted: Mus musculus, po, read-out: Inhibitory ratio (% antagonism of scopolamine-induced hypermotility). The method, then: Antagonistic effect on scopolamine-induced hypermotility:
A test compound was orally administered to each mouse, and 90 minutes after the administration, each one test animal was placed within a test cage (25×35×30 cm). After 30 minutes, scopolamine hydrobromide (1 mg/kg) was intraperitoneally administered to the mice and then the motility was measured with Animex activity meter for 30 minutes. The effect of test compounds was expressed as % antagonism (complete antagonism to the motility level of non-dosed animals=100%).

In data set [6] the test system is brain serotonin metabolite, 5-hydroxyindole-3-acetic acid (5-HIAA). As to the kind of experiment: Increasing effect on concentration of brain serotonin metabolite (5-HIAA). It is filed as in vivo, mice (Std-ddY strain). To be noted: Mus musculus, 2 h, two hours after treatment, 5-HIAA level of non-dosed animals=100%. From the text: Increasing effect on concentration of brain serotonin metabolite:
A group of 5 male mice (Std-ddY strain, 25-30 g) was used for examining effect of the test compounds on concentration of a brain serotonin metabolite, 5-hydroxyindole-3-acetic acid (5-HIAA).
Mice were killed by decapitation two hours after the treatment with the test compounds. Brains were quickly taken out, homogenized in 1N formic acid-acetone solution, and centrifuged in a refrigerated ultracentrifuge. The supernatant was evaporated by blowing with N2 gas, and then, the residue was again dissolved in 0.01N acetic acid, and served for determining 5-HIAA concentration by high performance liquid chromatography with electrochemical detection. The effect of the test compounds on 5-HIAA concentration was shown as % of control (5-HIAA level of non-dosed animals=100%).

Data set [7] has as its system reserpine-induced hypothermia. As to the kind of experiment: Anti-reserpine effect (reserpine-induced hypothermia). In kind it is in vivo, mice (Std-ddY strain). To be noted: 100 mg/kg orally; reserpine 5 mg/kg s.c.; rectal temperature at 4 hours; complete inhibition=100%. The method, then: A group of 5 male mice (Std-ddY strain, 22-25 g) was used for examining the antagonistic effect of the test compounds on reserpine-induced hypothermia, which is known as a screening method for the antidepressant drug.
Reserpine (5 mg/kg) was subcutaneously administered to the mice and further a test compound was orally administered thereto. Four hours after the administration, rectal temperature of the mice was measured. The effect of the test compounds was estimated by % inhibition (complete inhibition to the hypothermia by reserpine in non-dosed animals=100%).

Another data set has as its system mice. The data set can be described thus: Acute toxicity. In kind it is in vivo, mice (Std-ddY strain). Conditions: 200 mg/kg orally; 7 days observation; 5 male mice. The procedure:
Experiment 8 Acute toxicity
A group of 5 male mice (Std-ddY strain, 25-30 g) was used. The test compound (200 mg/kg) was orally administered to the test animal in the form of a 0.5% tragacanth solution or suspension, and for 7 days after the administration of the test compound, the lethality of animals was observed.

In the next data set the target is adrenaline (α1) receptor. The data set can be described thus: Adrenaline (α1) receptor binding assay, [3H] WB-4101. Also on record: species or system rats. To be noted: rat brain crude synaptosome fractions. The method, then:
as §1, §2, §3

The next data set deals with serotonin (S1) receptor. As to the kind of experiment: Serotonin (S1) receptor binding assay, [3H] serotonin. To be noted: rat brain crude synaptosome fractions. Also on record: species or system rats. The method, then:
as §1, §2, §3

Where [8] appears, read: 30 mg/kg, orally, scopolamine hydrobromide 1 mg/kg i.p., complete antagonism to motility level of non-dosed animals=100%.

Structures are written as SMILES. Like-named read-outs stand apart in the source and are kept apart here.

T2 sequence (P14842 whole entry): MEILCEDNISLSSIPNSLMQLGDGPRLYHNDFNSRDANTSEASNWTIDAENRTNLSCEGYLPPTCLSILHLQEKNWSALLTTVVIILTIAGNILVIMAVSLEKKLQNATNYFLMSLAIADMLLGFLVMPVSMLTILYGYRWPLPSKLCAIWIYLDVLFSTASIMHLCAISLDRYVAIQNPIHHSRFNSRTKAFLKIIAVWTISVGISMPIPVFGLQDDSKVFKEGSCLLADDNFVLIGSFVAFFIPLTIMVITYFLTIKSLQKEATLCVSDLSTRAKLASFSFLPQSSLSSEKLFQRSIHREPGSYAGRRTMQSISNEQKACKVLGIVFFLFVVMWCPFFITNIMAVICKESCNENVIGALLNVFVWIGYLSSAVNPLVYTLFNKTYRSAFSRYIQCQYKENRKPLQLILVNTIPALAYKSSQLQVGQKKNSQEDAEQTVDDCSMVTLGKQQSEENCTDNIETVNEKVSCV
T1 sequence (P61169 whole entry): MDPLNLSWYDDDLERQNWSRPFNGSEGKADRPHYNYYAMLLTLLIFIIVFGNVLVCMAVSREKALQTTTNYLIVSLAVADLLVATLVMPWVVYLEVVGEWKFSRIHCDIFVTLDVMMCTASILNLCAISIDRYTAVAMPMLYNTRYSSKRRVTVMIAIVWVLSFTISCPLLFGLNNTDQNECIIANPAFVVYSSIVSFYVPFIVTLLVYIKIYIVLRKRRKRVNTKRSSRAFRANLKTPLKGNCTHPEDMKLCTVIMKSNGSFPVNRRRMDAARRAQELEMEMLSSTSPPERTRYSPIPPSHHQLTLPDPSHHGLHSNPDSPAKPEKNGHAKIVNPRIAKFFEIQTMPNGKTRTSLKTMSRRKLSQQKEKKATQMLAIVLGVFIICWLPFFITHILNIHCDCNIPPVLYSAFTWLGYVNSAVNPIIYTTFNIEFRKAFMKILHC

Turning to `CN1CCN(c2nc3c(c(-c4ccccc4)n2)CCC3)CC1` [6,7-dihydro-2-(4-methyl-1-piperazinyl)-4-phenyl-5H-cyclopenta[d]pyrimidine], in data set [1], the Anti-inflammatory activity entry is “have anti-inflammatory activity”.
Turning to `c1ccc(CN2CCN(c3nc4c(c(-c5ccccc5)n3)CCCC4)CC2)cc1` [4-phenyl-2-(4-benzyl-1-piperazinyl)-5,6,7,8-tetrahydroquinazoline], the Hypoglycemic activity result in [2] is recorded as “weak hypoglycemic activity”.
With `c1ccc(-c2nc(N3CCNCC3)nc3c2CCCCC3)cc1` [Ex. 7, 2-(1-Piperazinyl)-4-phenyl-6,7,8,9-tetrahydro-5H-cycloheptapyrimidine], the “Improvement of scopolamine-induced deficit of spontaneous alternation” value (from here on “Improvement … of spontaneous alternation”) in [3] (10.0 mg/kg i.p.) amounted to 44.0%. Also, the IC50 at dopamine (D2) receptor turned out to be 2000 nM; at serotonin (S2) receptor, 38 nM. In data set [4] (0.5 mg/kg i.p.), the “Improvement of cycloheximide-induced amnesia (step-down latency)” value (“Improvement … (step-down latency)” for short) is 70.4%. Also, the inhibition in vivo at 30 mg/kg in data set [5] (setting [8]) was found to be 78.2%.
For `c1ccc(-c2nc(N3CCNCC3)nc3c2CCCC3)cc1` [4-phenyl-2-(1-piperazinyl)-5,6,7,8-tetrahydroquinazoline], in [2], the Hypoglycemic activity entry is listed as “weak hypoglycemic activity”.
With `CN1CCN(c2nc3c(c(-c4ccc(F)cc4)n2)CCCC3)CC1` [Ex. 28], the response vs control in vivo at 100 mg/kg in data set [6] was 156%. Further, the IC50 at dopamine (D2) receptor was 350 nM; on serotonin (S2) receptor, 87 nM. The “Inhibitory ratio (% inhibition of reserpine-induced hypothermia)” value in [7] is 37%. The inhibition in vivo at 30 mg/kg in data set [5] (setting [8]) amounted to 96.4%.
`CN1CCN(c2nc3c(c(-c4ccccc4)n2)CCCCC3)CC1` [6,7,8,9-tetrahydro-2-(4-methyl-1-piperazinyl)-4-phenyl-5H-cyclohepta[d]pyrimidine]: in data set [1], the Anti-inflammatory activity entry is “have anti-inflammatory activity”.
Turning to `c1ccc(-c2nc(N3CCNCC3)nc3c2CCCCCC3)cc1` [Ex. 9, 2-(1-Piperazinyl)-4-phenyl-5,6,7,8,9,10-hexahydrocyclooctapyrimidine], the “Improvement … of spontaneous alternation” value in data set [3] (2.0 mg/kg i.p.) was 36.7%. The Lethality of animals entry in the data set with mice was “no animal was died”. In data set [4] (0.5 mg/kg i.p.), the “Improvement … (step-down latency)” value stood at 85.8%. Also, in data set [5] (10 mg/kg, orally, scopolamine hydrobromide 1 mg/kg i.p., complete antagonism to motility level of non-dosed animals=100%), the inhibition in vivo at 10 mg/kg was determined as 60.4%.
For the compound `Fc1ccc(-c2nc(N3CCNCC3)nc3c2CCCCC3)cc1` [Ex. 2, 2-(1-piperazinyl)-4-(4-fluorophenyl)-6,7,8,9-tetrahydro-5H-cycloheptapyrimidine], the IC50 on adrenaline (α1) receptor turned out to be 3400 nM; on dopamine (D2) receptor it was 750 nM; on serotonin (S2) receptor it was 9.6 nM; at serotonin (S1) receptor it was 3000 nM. Besides, in data set [3] (2.0 mg/kg i.p.), the “Improvement … of spontaneous alternation” value is 39.1%. The response vs control in vivo at 100 mg/kg in [6] was determined as 135%. Moreover, the Lethality of animals result with mice was “no animal was died”. Also, the “Improvement … (step-down latency)” value in [4] (0.5 mg/kg i.p.) turned out to be 93.7%; in data set [4] (2.0 mg/kg i.p.), 72.8%. The inhibition in vivo at 30 mg/kg in [5] was 69.2%.
In the case of `Fc1ccc(-c2nc(N3CCNCC3)nc3c2CCCCCC3)cc1` [Ex. 10, 2-(1-Piperazinyl)-4-(4-fluorophenyl)-5,6,7,8,9,10-hexahydrocyclooctapyrimidine], the IC50 at adrenaline (α1) receptor came to 1200 nM; at dopamine (D2) receptor it was 130 nM; at serotonin (S2) receptor, 19 nM; on serotonin (S1) receptor, 1300 nM. In [3] (2.0 mg/kg i.p.), the “Improvement … of spontaneous alternation” value stood at 63.0%. For the same compound, the “Improvement … (step-down latency)” value in [4] (0.5 mg/kg i.p.) worked out at 67.1%. Moreover, the inhibition in vivo at 3 mg/kg in data set [5] turned out to be 50.6%.
